Measurements published in ChEMBL document CHEMBL1147529, “Discovery and optimization of 2-aryl oxazolo-pyrimidines as adenosine kinase inhibitors using liquid phase parallel synthesis” (Bioorg Med Chem Lett, 2004).

What follows are compounds tested against Adenosine kinase (Homo sapiens, UniProt P55263) (assay: Inhibitory activity against human adenosine kinase expressed in Escherichia coli).
Chain of Adenosine kinase (P55263 whole entry): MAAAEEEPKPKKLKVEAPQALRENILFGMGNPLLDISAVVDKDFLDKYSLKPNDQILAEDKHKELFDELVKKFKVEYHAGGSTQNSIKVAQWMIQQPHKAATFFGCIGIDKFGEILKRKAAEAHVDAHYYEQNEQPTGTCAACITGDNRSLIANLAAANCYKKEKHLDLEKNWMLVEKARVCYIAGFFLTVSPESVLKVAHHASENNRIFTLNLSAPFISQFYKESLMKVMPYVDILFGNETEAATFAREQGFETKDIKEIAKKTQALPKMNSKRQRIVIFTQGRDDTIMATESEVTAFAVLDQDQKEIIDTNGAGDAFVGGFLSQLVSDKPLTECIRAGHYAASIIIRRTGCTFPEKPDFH

IC50 [µM]	Structure (SMILES)
1	c1ccc(CN2C[C@@H]3CCCN(c4ncnc5oc(-c6ccccc6)nc45)[C@@H]3C2)cc1
0.03	O=C(Nc1ccc(-c2nc3c(N4CC5CCN(Cc6ccccc6)C5C4)ncnc3o2)cc1)C1CC1 (configuration not stated)
0.06	O=C(Nc1cccc(-c2nc3c(N4CC5CCN(Cc6ccccc6)C5C4)ncnc3o2)c1)C1CC1 (configuration not stated)
0.07	O=C(Nc1ccc(-c2nc3c(N4CC5CCN(Cc6ccccc6)C5C4)ncnc3o2)cc1)c1ccccc1 (configuration not stated)
0.04	COCC(=O)Nc1cccc(-c2nc3c(N4CC5CCN(Cc6ccccc6)C5C4)ncnc3o2)c1 (configuration not stated)
0.07	Clc1ccc(-c2nc3c(N4CC5CCN(Cc6ccccc6)C5C4)ncnc3o2)cn1 (configuration not stated)
> 10	CCCCNc1ncnc2oc(-c3ccccc3)nc12
0.12	c1ccc(CN2CC[C@@H]3CN(c4ncnc5oc(-c6ccccc6)nc45)C[C@@H]32)cc1
0.2	O=C(Nc1cccc(-c2nc3c(N4CC5CCN(Cc6ccccc6)C5C4)ncnc3o2)c1)c1ccc(F)cc1 (configuration not stated)
> 10	O=C(Nc1cccc(-c2nc3c(N4CC5CCN(Cc6ccccc6)C5C4)ncnc3o2)c1)c1ccc(C(F)(F)F)cc1 (configuration not stated)
> 10	COCCNc1ncnc2oc(-c3ccccc3)nc12
> 10	c1ccc(CN2CCN(c3ncnc4oc(-c5ccccc5)nc34)CC2)cc1
0.2	c1ccc(CN2CCC3CN(c4ncnc5oc(-c6ccccc6)nc45)CC32)cc1 (configuration not stated)
> 10	Fc1ccc(-c2ccc(-c3nc4c(N5CC6CCN(Cc7ccccc7)C6C5)ncnc4o3)cc2)cc1 (configuration not stated)
0.24	Brc1ccc(-c2nc3c(N4CC5CCN(Cc6ccccc6)C5C4)ncnc3o2)cc1 (configuration not stated)
0.07	O=C(Cc1ccccc1)Nc1ccc(-c2nc3c(N4CC5CCN(Cc6ccccc6)C5C4)ncnc3o2)cc1 (configuration not stated)

IC50 [µM]	Structure (SMILES)
0.05	Nc1ccc(-c2nc3c(N4CC5CCN(Cc6ccccc6)C5C4)ncnc3o2)cc1 (configuration not stated)
0.01	CN(C)c1ccc(-c2nc3c(N4CC5CCN(Cc6ccccc6)C5C4)ncnc3o2)cn1 (configuration not stated)
0.13	O=C(Nc1ccc(-c2nc3c(N4CC5CCN(Cc6ccccc6)C5C4)ncnc3o2)cc1)c1ccc(F)cc1 (configuration not stated)
0.23	c1ccc(CCCNc2ncnc3oc(-c4ccccc4)nc23)cc1
> 1	Fc1ccc(CN2CCCN(c3ncnc4oc(-c5ccccc5)nc34)CC2)cc1
0.26	Brc1cccc(-c2nc3c(N4CC5CCN(Cc6ccccc6)C5C4)ncnc3o2)c1 (configuration not stated)
> 10	O=C(Nc1ccc(-c2nc3c(N4CC5CCN(Cc6ccccc6)C5C4)ncnc3o2)cc1)c1ccc(C(F)(F)F)cc1 (configuration not stated)
0.04	COCC(=O)Nc1ccc(-c2nc3c(N4CC5CCN(Cc6ccccc6)C5C4)ncnc3o2)cc1 (configuration not stated)
> 1	c1ccc(CN2CCC3CN(c4ncnc5oc(-c6ccncc6)nc45)CC32)cc1 (configuration not stated)
0.21	O=C(Cc1ccccc1)Nc1cccc(-c2nc3c(N4CC5CCN(Cc6ccccc6)C5C4)ncnc3o2)c1 (configuration not stated)
0.13	c1ccc(CN2CCC3CN(c4ncnc5oc(-c6cccnc6)nc45)CC32)cc1 (configuration not stated)
0.09	O=C(Nc1cccc(-c2nc3c(N4CC5CCN(Cc6ccccc6)C5C4)ncnc3o2)c1)c1ccccc1 (configuration not stated)
0.09	c1ccc(CN2CCC3CN(c4ncnc5oc(-c6ccc(-c7cccs7)cc6)nc45)CC32)cc1 (configuration not stated)
0.27	CN(CCCNc1ncnc2oc(-c3ccccc3)nc12)c1ccccc1
> 10	c1ccc(CN2CC3CN(c4ncnc5oc(-c6ccccc6)nc45)CC3C2)cc1 (configuration not stated)
0.01	Nc1ncnc2nc(-c3ccc(N4CCOCC4)nc3)cc(-c3cccc(Br)c3)c12
